Assay results taken from publication PMC4727773, “Design, Synthesis, and Biological Evaluation of New 2-Phenyl-4H-chromen-4-one Derivatives as Selective Cyclooxygenase-2 Inhibitors” (Scientia Pharmaceutica, 2014).

Key:
ovine COX-2 = biological target: T1, ovine COX-2 (Ovis aries, UniProt P79208); assay: In vitro ovine COX-2 enzyme inhibition (chemiluminescent enzyme assay kit, Cayman); assay type: biochemical; details: for Selectivity index (SI): In vitro COX-2 selectivity index (COX-1 IC50/COX-2 IC50); for IC50: ovine COX-1/COX-2 assay kit, means of two determinations, deviation < 10% of the mean
T1 construct: purchased Cayman Chemical, Ann Arbor, MI, USA
T1 sequence (P79208 17-603): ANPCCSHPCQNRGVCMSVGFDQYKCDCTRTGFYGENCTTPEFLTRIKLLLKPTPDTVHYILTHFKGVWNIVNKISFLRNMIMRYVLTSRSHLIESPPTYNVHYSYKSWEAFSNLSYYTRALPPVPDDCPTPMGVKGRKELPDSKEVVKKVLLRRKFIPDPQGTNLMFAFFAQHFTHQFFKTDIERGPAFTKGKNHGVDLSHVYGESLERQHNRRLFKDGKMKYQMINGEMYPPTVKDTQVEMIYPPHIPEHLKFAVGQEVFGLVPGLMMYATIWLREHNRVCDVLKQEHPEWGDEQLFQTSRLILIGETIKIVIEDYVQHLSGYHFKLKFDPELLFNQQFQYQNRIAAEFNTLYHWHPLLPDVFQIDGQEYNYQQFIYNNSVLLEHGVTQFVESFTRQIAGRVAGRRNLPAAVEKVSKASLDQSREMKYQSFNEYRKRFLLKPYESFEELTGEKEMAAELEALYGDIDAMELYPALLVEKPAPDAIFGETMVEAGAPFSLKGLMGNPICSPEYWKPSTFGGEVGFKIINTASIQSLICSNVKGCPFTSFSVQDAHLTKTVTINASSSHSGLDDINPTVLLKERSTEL
Method: (§1) The ability of the test compounds listed in Table 1 to inhibit ovine COX-1 and COX-2 (IC50 value, μM) was determined using the chemiluminescent enzyme assay kit (Cayman Chemical, Ann Arbor, MI, USA) according to our previously reported method.

ovine COX-1 = biological target: T2, ovine COX-1 (Ovis aries, UniProt P05979); assay: In vitro ovine COX-1 enzyme inhibition (chemiluminescent enzyme assay kit, Cayman); assay type: biochemical; details: ovine COX-1/COX-2 assay kit; means of two determinations, deviation < 10% of the mean
T2 construct: purchased Cayman Chemical, Ann Arbor, MI, USA
T2 sequence (P05979 25-600): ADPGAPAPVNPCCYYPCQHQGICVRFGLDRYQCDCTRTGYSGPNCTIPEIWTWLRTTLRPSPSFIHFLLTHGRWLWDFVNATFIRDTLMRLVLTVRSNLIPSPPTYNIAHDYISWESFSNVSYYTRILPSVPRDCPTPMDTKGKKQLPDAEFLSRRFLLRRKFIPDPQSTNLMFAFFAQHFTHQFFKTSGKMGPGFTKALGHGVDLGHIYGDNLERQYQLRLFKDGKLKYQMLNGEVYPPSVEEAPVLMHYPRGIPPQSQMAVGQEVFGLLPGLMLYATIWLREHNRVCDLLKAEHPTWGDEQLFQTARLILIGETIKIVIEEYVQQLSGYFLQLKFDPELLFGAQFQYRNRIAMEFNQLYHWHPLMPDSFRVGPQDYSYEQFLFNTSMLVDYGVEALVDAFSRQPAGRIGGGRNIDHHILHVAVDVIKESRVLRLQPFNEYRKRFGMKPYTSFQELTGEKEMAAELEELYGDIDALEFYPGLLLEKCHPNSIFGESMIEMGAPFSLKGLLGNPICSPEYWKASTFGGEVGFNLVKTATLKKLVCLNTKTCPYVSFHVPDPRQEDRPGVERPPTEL
Method: as §1

| Selectivity index (SI) (ovine COX-2) | IC50 (ovine COX-2) | IC50 (ovine COX-1) | melting point | SMILES |
| --- | --- | --- | --- | --- |
| 287.1 | 0.07 µM | 20.1 µM | 140 to 142 °C | CS(=O)(=O)c1ccc(-c2oc3ccccc3c(=O)c2OCc2ccccc2)cc1 [Compound 5d, 3-(Benzyloxy)-2-[4-(methylsulfonyl)phenyl]-4H-chromen-4-one] |
| 126.5 | 0.1 µM | 12.7 µM | 92 to 93 °C | COc1c(-c2ccc(S(C)(=O)=O)cc2)oc2ccccc2c1=O [Compound 5a, 3-Methoxy-2-[4-(methylsulfonyl)phenyl]-4H-chromen-4-one] |
| 149.1 | 0.09 µM | 13.4 µM | 137 to 138 °C | CCOc1c(-c2ccc(S(C)(=O)=O)cc2)oc2ccccc2c1=O [Compound 5b, 3-Ethoxy-2-[4-(methylsulfonyl)phenyl]-4H-chromen-4-one] |
| 173.1 | 0.08 µM | 13.8 µM | 116 to 118 °C | C=CCOc1c(-c2ccc(S(C)(=O)=O)cc2)oc2ccccc2c1=O [Compound 5c, 3-(Allyloxy)-2-[4-(methylsulfonyl)phenyl]-4H-chromen-4-one] |

Second part, the compound before the results:

| SMILES | Selectivity index (SI) (ovine COX-2) | IC50 (ovine COX-2) | IC50 (ovine COX-1) | melting point |
| --- | --- | --- | --- | --- |
| CS(=O)(=O)c1ccc(-c2cc(=O)c3ccccc3o2)cc1 [Compound 3, 2-[4-(Methylsulfonyl)phenyl]-4H-chromen-4-one] | 98.2 | 0.11 µM | 10.8 µM | 187 °C |
| CS(=O)(=O)c1ccc(-c2oc3ccccc3c(=O)c2O)cc1 [Compound 4, 3-Hydroxy-2-[4-(methylsulfonyl)phenyl]-4H-chromen-4-one] | 75.3 | 0.13 µM | 9.79 µM | 198 to 199 °C |
| CC(=O)Oc1c(-c2ccc(S(C)(=O)=O)cc2)oc2ccccc2c1=O [Compound 6, 2-[4-(Methylsulfonyl)phenyl]-4-oxo-4H-chromen-3-yl acetate] | 195.6 | 0.08 µM | 15.6 µM | 175 °C |
